In assay [1] the test system is MCF7shctrl and MCF7shTau subclones. Nature of the assay: Apoptosis by flow cytometry of PI-positive and Annexin-V-positive cells. In kind it is cell-based, human. Conditions: 100 nM TSA, 48 h. The procedure:
FIG. 1: Tau inhibition increases MCF7 breast cancer cell line sensitivity to TSA. (A) Tau protein expression in MCF7, MCF7shctrl and shTau were quantify by Elisa. (B) Effect of 100 nM TSA (48 h) on cell death in the MCF7shctrl and MCF7shTau subclones. Cell death was determined by staining and flow cytometric analysis as described in the materials and methods. (C) Effect of 100 nM TSA (48 h) on apoptosis in the MCF7shctrl and MCF7shTau subclones. Apoptosis was determined by flow cytometric analysis of the PI-positive and Annexin-V-positive cells as described in the materials and methods. (D) Cell cycle distribution was determined by FACS analysis of combined propidium iodide and EdU staining in MCF7shctrl and MCF7shTau in the absence or presence 100 nM TSA, 48 h. Data are mean±SD **P<0.01***P<0.001. […]
SH-SY5Y human neuroblastoma cells expressing Tau4R tagged with the streptavidin-binding peptide (SBP) (referred as SH-SY5Y-(SBP)Tau4R) (Chauderlier et al., 2018), SH-SY5Y-Tet-on-Tau4R, Hela cells, MCF7 and MDA-MB-231 were cultured in Dulbecco's Modified Eagle's Medium with 10% fetal bovine serum, 2 mM L-glutamine and 50 U/ml penicillin/streptomycin (Gibco) at 37° C. in 5% CO2 humidified air. […] For stable clones, luciferase activities were measured using the luciferase assay system (Promega) and normalized against protein concentration. […]
For orientation: A flow cytometer gives signals particle by particle.

The subject of assay [2] is GAL4 UAS promoter in GAL4UAS responsive luciferase reporter Hela stable cell line. Briefly: ChIP-qPCR of H3 acetylation or Tau occupancy on the GAL4UAS promoter. Type of assay: cell-based. The text has this:
(A) Chromatin immunoprecipitations-qPCR analysis of H3 acetylation and Tau occupancy on the GAPDH promoter in MCF7shctrl cells in the indicated conditions. MCF7shctrl cells were subjected to cross-linking by 1% formaldehyde. Chromatin fragments were then immunoprecipitated using antibodies (Ab) against acetylated H3 (ac-H3) or Tau and analyzed by quantitative PCR for the presence of the GAPDH promoter. (B) Functional organization of the p21 promoter. (C) ChIP-qPCR analysis of H3 acetylation in MCF7shctrl or shTau cells or (D) Tau occupancy in MCF7shctrl cells on the p21 promoter. (E) ChIP-qPCR analysis of H3 acetylation or Tau occupancy on the stably transfected GAL4UAS responsive luciferase reporter transfected, or not, with Tau4R, then 24 h later treated with 100 nM TSA for 24 h. Cells were then subjected to cross-linking by 1% formaldehyde. Chromatin fragments were then immunoprecipitated using antibodies (Ab) against acetylated H3 or Tau and analyzed by quantitative PCR for the presence of the GAL4 UAS promoter. Quantification of enrichment is represented as fold-enrichment relative to IgG. Data are mean±SD **P<0.01***P<0.001
The ChIP protocol used was previously described (Lefebvre et al., 2006). […]
(Quantitative PCR measures a nucleic acid by following its amplification.)

For the molecule `CC(/C=C/C(=O)NO)=C\[C@@H](C)C(=O)c1ccc(N(C)C)cc1` [TSA, 2,4-Heptadienamide, 7-[4-(dimethylamino)phenyl]-N-hydroxy-4,6-dimethyl-7-oxo-, (2E,4E,6R)-], the apoptosis in assay [1] (Tau-knockdown cells (MCF7shTau)) came out at 48%; in assay [1] (sh-ctrl cells (MCF7shctrl)), 30%. Further, the “TSA-induced increase of ac-H3 in the presence of transfected Tau4R” value in assay [2] (100 nM TSA, Tau4R transfected HeLa cells) was “abrogated”. This molecule returned a Tau4R enrichment in assay [2] (TSA-treated condition (100 nM), Tau4R transfected) of 16 fold.

Values taken from patent publication US20250134952A1, “METHODS FOR IMPROVING THE EFFICACY OF HDAC INHIBITOR THERAPY AND PREDICTING THE RESPONSE TO TREATMENT WITH HDAC INHIBITOR” (INSTITUT NATIONAL DE LA SANTÉ ET DE LA RECHERCHE MÉDICALE, priority 2021, published 2025).
